Here are results for three compounds from patent publication US20020132793A1, “Use of methylphenidate compounds to enhance memory” (priority 2000, published 2002).

Each structure is given as a SMILES string.

The test system of one series is IA memory in the rat. The series is described as follows: Inhibitory Avoidance (IA) task in normal rats. The note with it: for retention on the IA task: FIG. 1. Type of series: in vivo. The procedure: An exemplary passive avoidance test utilizes an apparatus that consists of a lit chamber that can be separated from a dark chamber by a sliding door. At training, the animal is placed in the lit chamber for some period of time, and the door is opened. The animal moves to the dark chamber after a short delay—the latency—that is recorded. Upon entry into the dark chamber, the door is shut closed and a foot shock is delivered. Retention of the experience is determined after various time intervals, e.g., 24 or 48 hours, by repeating the test and recording the latency. The protocol is one of many variants of the passive avoidance procedures (for review, see Rush (1988) Behav Neural Biol 50:255).
The Inhibitory Avoidance (IA) task is a well-studied behavioral paradigm which can provide the researcher with a consistent and long-lasting measure of memory. The paradigm consists of one training trial and one retention trial. Test articles may be administered to the rats either before or after training. Improved memory, as a result of test compound administration, is evident as increased latency on the retention trial. The objective of the following experiments was to investigate the effects of methylphenidate on IA memory in the rat.
In this experiment, rats were injected with three different doses of methylphenidate thirty minutes prior to training on the IA task.
Rats were injected with 5 mg/kg of methylphenidate and trained on the IA task.
In this experiment, the time of drug administration was varied in order to determine the optimal pre-training drug administration time.
This experiment was conducted in order to determine whether the enhanced retention observed in Experiment 2 was long-lasting. Rats received a second retention test one week after the first retention test. No additional training or drug was administered to the animals in the interim period.
In the next experiment, we investigated whether the performance of amnesic rats could be improved by administration of methylphenidate. In this experiment, control rats and rats with lesions of the fornix received injections of either saline or methylphenidate (5 mg/kg), and one hour later, were tested on the IA task.
Different doses of l-threo methylphenidate were administered to rats one hour prior to training on the Inhibitory Avoidance task. Retention for the task was tested 24 hours later. […] This experiment was subsequently replicated using a target dose of 5 mg/kg.
The effects of d-threo methylphenidate on memory consolidation as tested by the Inhibitory Avoidance task were also evaluated. Different doses of d-threo were administered to rats one hour prior to training on the Inhibitory Avoidance task.

In another series the test system is locomotor activity. As to the kind of experiment: Activity monitoring task (locomotor activity levels). The procedure: The effects of d-threo methylphenidate on locomotor activity was investigated by injecting rats with saline or 2.5 mg/kg of d-threo methylphenidate, and testing them one hour later on the activity monitoring task.
In order to investigate the effects of l-threo methylphenidate on activity levels, rats were injected with 5 mg/kg of l-threo methylphenidate, and underwent activity monitoring one hour later.

The subject of another series is memory retention. The series is described as follows: Providence Recognition Memory Test (Pictoral) in healthy human volunteers. Type of series: in vivo. The note with it: PRMT (ascending) and RAVLT (descending) experiments together. The source says:
(§1) The primary objective of the study is to identify the MTD and dose-limiting side-effects of l-threo methylphenidate hydrochloride. The secondary objectives included:
(§2) This was a randomised, double-blind, placebo-controlled, study including eight healthy male/female subjects. There were five treatment periods, each comprising two treatment days, with a 5-day washout period between dose levels. Subjects received four ascending doses of drug (a split dose on the first day of the treatment period and half the dose on the second day of the treatment period) and placebo. The placebo dose was randomly assigned to one of the five treatment periods. Each dose was taken orally.
(§3) The first dose level was administered on Day 1 and Day 2. After a 5-day washout period, subjects received the next dose level for 2 days. The period of washout and dose escalation was repeated until all five dose levels (four active dose levels and one placebo) were administered. Safety and tolerability was assessed after each treatment period to determine if subjects may advance to the next dose level.
Patients were assessed using the Providence Recognition Memory Test (Pictoral). Higher PRMT score indicates increased memory retention. […] This study was performed on Decending Plasma Curve of l-threo-methylphenidate. Higher RAVLT score indicates increased memory retention.

The test system of a further series is attention and learning. The series is described as follows: Brief Visuospatial Memory Test in healthy human volunteers. It is filed as in vivo.
Text: as §1, §2, §3
Higher BVMT score indicates increased attention and learning.

The conditions of series [1]: cited from earlier work.
The subject of series [2] is rats with lesions of the fornix. The series is described as follows: Inhibitory Avoidance (IA) task in rats with lesions of the fornix. The note with it: 5 mg/kg, one hour before. Type of series: in vivo, rat.
The mark [3] stands for this setting: 2.5 mg/kg, tested one hour later, vs saline.
The mark [4] stands for this setting: 5 mg/kg, one hour later, vs saline.

As to `COC(=O)[C@H](c1ccccc1)[C@H]1CCCCN1` [d-threo methylphenidate, D-threo-methylphenidate], in the series on IA memory in the rat (2.5 mg/kg one hour prior to training, FIG. 6), the “memory consolidation in the Inhibitory Avoidance task, dose finding” value is “appears to be effective in improving memory”. For the same compound, the “memory in the Inhibitory Avoidance task, replication” value with IA memory in the rat (2.5 mg/kg, t(85)=2.403, p<0.0184, FIG. 7) is “significant memory enhancing effects”. In addition, in the series with locomotor activity (setting [3]), the number of movements entry is recorded as “No significant main effects”, the “number of stereotyped activities” value is on record as “No significant main effects” and the total distance moved entry is “No significant main effects”. Also, the number of rears result in the series with locomotor activity (2.5 mg/kg, tested one hour later, vs saline, F(1, 70)=19.60, p<0.0234) is reported as “Significant main effects”. Also, the movement time entry with locomotor activity (2.5 mg/kg, tested one hour later, vs saline, F(1, 70)=1304, p<0.0001) was “Significant main effects”. Also, the rest time entry in the series on locomotor activity (2.5 mg/kg, tested one hour later, vs saline, F(1, 70)=1322, p<0.0001) is given as “Significant main effects”. Further, the “hyperactivity (locomotor activity)” value in the series on locomotor activity (2.5 mg/kg, tested one hour later, vs saline, FIG. 9) is “did not produce a large amount of hyperactivity”.

For `COC(=O)[C@@H](c1ccccc1)[C@@H]1CCCCN1` [l-threo methylphenidate, L-threo-methylphenidate], the “performance on the Inhibitory Avoidance task, dose finding” value with IA memory in the rat (5 mg/kg one hour prior to training, retention tested 24 hours later, FIG. 4) is on record as “appeared to be effective in enhancing performance”. Also, in the series with IA memory in the rat (5 mg/kg one hour prior to training, t(59)=2.686, p<0.0094, FIG. 5), the “performance of the Inhibitory Avoidance task, replication” value is listed as “significantly enhanced performance”. Besides, the “activity levels compared to saline injected controls” value in the series with locomotor activity (5 mg/kg, activity monitoring one hour later, FIG. 8) is reported as “did not result in greatly increased activity levels”. Further, the “locomotor hyperactivity, overall” value with locomotor activity (5 mg/kg, one hour later) was “does not appear to result in serious locomotor hyperactivity”. For the same compound, in the series with locomotor activity (setting [4]), the number of movements entry is on record as “no significant difference”, the “number of stereotyped activities” value was “no significant difference” and the total distance moved entry is “no significant difference”. Moreover, the number of rears result with locomotor activity (5 mg/kg, one hour later, vs saline, F(1, 70)=74.26, p<0.0001) is “small, but statistically significant main effects”. Moreover, in the series on locomotor activity (5 mg/kg, one hour later, vs saline, F(1, 70)=728, p<0.0033), the movement time entry is recorded as “small, but statistically significant main effects”. In addition, the time spent resting entry in the series with locomotor activity (5 mg/kg, one hour later, vs saline, F(1, 70)=730.6, p<0.0032) is “small, but statistically significant main effects”. Besides, the “memory enhancement, ascending vs descending portion of the plasma curve” value in the series with memory retention is given as “more effective during the ascending portion of the plasma curve”. Also, the “enhancement of attention and learning by portion of the plasma curve” value in the series with attention and learning (BVMT) was “more effective during the ascending portion of the plasma curve”. Further, the “attention and learning, BVMT score” value in the series on attention and learning (ascending blood concentration, oral, healthy volunteers, FIG. 14) is “can enhance attention and learning in patients”. Also, the “half-life relative to dl-threo methylphenidate” value in series [1] (strong evidence) is “even shorter half-life”.

Consider `COC(=O)C(c1ccccc1)C1CCCCN1` (racemic) [methylphenidate, methyl α-phenyl-2-piperidineacetate], for which the “retention on the IA task” value is “improved retention” in the series with IA memory in the rat (5 mg/kg injected thirty minutes prior to training), “no effect” in the series on IA memory in the rat (10 mg/kg injected thirty minutes prior to training) and “no effect” in the series with IA memory in the rat (15 mg/kg injected thirty minutes prior to training). Besides, in the series on IA memory in the rat (5 mg/kg, one hour before, FIG. 3), the “performance of normal rats on the IA task” value is reported as “dramatically enhanced”. In the series on IA memory in the rat (5 mg/kg, one hour before, p<0.05), the “performance of normal rats vs all other experimental groups (Student-Newman-Keuls post hoc)” value is “significantly enhanced relative to all other experimental groups”. Moreover, the “optimal pre-training drug administration time” value in the series on IA memory in the rat (5 mg/kg, time of drug administration varied) is “most effective when administered to the rats one hour prior to training”. Moreover, in the series on IA memory in the rat (5 mg/kg, unpaired t-test p<0.03, FIG. 2), the “retention of the IA task, second experiment” value is listed as “significantly improved retention”. Also, the “performance at second retention test (long-term retention)” value with IA memory in the rat (one week after the first retention test, no additional training or drug, t(54)=2.358, p<0.0220) is “still significantly enhanced”. Further, in series [2] (FIG. 3), the “performance of the fornix lesion rats on the IA task” value is “appeared to improve”. In series [2] (post hoc test), the “performance of fornix animals vs normal, saline injected animals” value was “not significantly different from normal, saline injected animals”. Also, in series [1] (in adults), the half-life was 2 to 3 h. In series [1] (in adults), the “time to excretion after dosing” value was 48 to 96 h.

Broadly, the half-life is how long it takes for the measured level to halve.
